Data as given in patent US10758534B2 (Vertex Pharmaceuticals Incorporated, priority 2014, dated 2020).

Molecular target: T1, F508del (Homo sapiens, UniProt P13569, DEL508-508)
T1 construct: expressed in transfected cells
Assay: Protocol 2: FRET membrane potential optical assay (VIPR), identification of correction compounds
Format: cell-based
Conditions: Table 3; compounds of Table 1 as modulators of CFTR activity; protocol not stated
Outline: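 NIH3T3 mouse fibroblasts stably expressing F508del were treated with test compound for 16 hrs at 37° C. in serum-free medium; 27° C. incubation served as positive control. F508del was activated with 10 μM forskolin plus 20 μM genistein in Cl^−-free medium, and Cl^− efflux-driven depolarization was read by DiSBAC2(3)/CC2-DMPE FRET.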

T1 sequence (P13569 with tags, fused parts or gaps DEL508-508): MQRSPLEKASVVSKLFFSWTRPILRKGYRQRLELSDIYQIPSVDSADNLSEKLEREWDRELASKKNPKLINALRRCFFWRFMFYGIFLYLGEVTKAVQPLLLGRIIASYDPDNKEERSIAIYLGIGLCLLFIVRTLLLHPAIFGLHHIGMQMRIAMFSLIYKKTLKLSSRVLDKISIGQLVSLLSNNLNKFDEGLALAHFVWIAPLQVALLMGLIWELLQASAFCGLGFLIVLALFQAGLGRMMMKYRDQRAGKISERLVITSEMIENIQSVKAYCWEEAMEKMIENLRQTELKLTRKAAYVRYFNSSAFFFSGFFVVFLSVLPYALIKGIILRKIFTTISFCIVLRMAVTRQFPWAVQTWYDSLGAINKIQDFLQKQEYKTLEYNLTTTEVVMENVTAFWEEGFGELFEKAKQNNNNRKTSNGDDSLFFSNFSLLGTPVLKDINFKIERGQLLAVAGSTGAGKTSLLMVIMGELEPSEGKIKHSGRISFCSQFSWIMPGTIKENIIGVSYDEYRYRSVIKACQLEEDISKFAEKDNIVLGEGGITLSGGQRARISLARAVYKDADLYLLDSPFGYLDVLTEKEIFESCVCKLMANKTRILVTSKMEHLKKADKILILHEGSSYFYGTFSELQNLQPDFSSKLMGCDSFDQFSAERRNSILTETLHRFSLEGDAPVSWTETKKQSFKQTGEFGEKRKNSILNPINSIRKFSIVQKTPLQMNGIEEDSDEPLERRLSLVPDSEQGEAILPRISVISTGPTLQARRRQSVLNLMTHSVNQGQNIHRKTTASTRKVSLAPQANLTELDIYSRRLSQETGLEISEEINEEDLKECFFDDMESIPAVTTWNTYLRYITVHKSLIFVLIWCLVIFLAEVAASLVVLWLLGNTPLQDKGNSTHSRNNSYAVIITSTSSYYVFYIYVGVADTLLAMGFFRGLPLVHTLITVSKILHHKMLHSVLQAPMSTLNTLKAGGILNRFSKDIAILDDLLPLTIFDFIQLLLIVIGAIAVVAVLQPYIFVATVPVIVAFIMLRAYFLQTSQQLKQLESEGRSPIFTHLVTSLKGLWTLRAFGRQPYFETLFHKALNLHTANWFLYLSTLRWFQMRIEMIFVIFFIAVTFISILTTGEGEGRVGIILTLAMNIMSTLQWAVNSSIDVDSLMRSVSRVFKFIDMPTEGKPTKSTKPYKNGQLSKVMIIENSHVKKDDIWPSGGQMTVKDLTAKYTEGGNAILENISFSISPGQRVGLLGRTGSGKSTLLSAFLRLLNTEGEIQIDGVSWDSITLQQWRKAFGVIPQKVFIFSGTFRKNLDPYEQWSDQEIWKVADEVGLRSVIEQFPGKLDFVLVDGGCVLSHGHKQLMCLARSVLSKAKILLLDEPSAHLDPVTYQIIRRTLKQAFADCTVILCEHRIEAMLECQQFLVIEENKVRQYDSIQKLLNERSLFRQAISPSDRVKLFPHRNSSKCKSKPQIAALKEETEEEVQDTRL

Row | SMILES | EC30
1 | CC(C)Oc1ccc(-c2ccc(C(=O)NS(=O)(=O)c3cccc(N)n3)c(N3CCc4ccccc43)n2)cn1 [Compound 588, N-[(6-amino-2-pyridyl)sulfonyl]-2-indolin-1-yl-6-(6-isopropoxy-3-pyridyl)pyridine-3-carboxamide] | ++ (“++” means between 3 uM and 10 uM)
2 | CC(C)c1ccc(-c2ccc(C(=O)NS(=O)(=O)c3ccc[nH]c3=O)c(N3[C@H](C)CC[C@@H]3C)n2)cc1 [Compound 589, 2-[(2S,5R)-2,5-dimethylpyrrolidin-1-yl]-6-(4-isopropylphenyl)-N-[(2-oxo-1H-pyridin-3-yl)sulfonyl]pyridine-3-carboxamide] | +++ (“+++” means <3 uM)
3 | Cc1ccc(Oc2nc(-c3cc(F)cc(OCC(C)C)c3)ccc2C(=O)NS(=O)(=O)c2cccc(N)n2)c(C)c1 [Compound 590, N-[(6-amino-2-pyridyl)sulfonyl]-2-(2,4-dimethylphenoxy)-6-(3-fluoro-5-isobutoxy-phenyl)pyridine-3-carboxamide] | +++ (“+++” means <3 uM)
4 | CC[C@@H]1CCCN1c1nc(-c2cc(F)cc(OCC(C)C)c2)ccc1C(=O)NS(=O)(=O)c1ccn[nH]1 [Compound 591, 2-(2-ethylpyrrolidin-1-yl)-6-(3-fluoro-5-isobutoxy-phenyl)-N-(1H-pyrazol-5-ylsulfonyl)pyridine-3-carboxamide] | +++ (“+++” means <3 uM)
5 | CC(C)COc1cc(F)cc(-c2ccc(C(=O)NS(=O)(=O)c3cccc(N)n3)c(N3CCCC3)n2)c1 [Compound 592, N-[(6-amino-2-pyridyl)sulfonyl]-6-(3-fluoro-5-isobutoxy-phenyl)-2-pyrrolidin-1-yl-pyridine-3-carboxamide] | +++ (“+++” means <3 uM)
6 | CC(C)COc1cc(F)cc(-c2ccc(C(=O)NS(=O)(=O)c3cccc(N)n3)c(N3CCCC3C3CC3)n2)c1 (centres unmarked) [Compound 593, N-[(6-amino-2-pyridyl)sulfonyl]-2-(2-cyclopropylpyrrolidin-1-yl)-6-(3-fluoro-5-isobutoxy-phenyl)pyridine-3-carboxamide] | +++ (“+++” means <3 uM)
7 | Cc1cc(C)c(Oc2nc(C)ccc2C(=O)NS(=O)(=O)c2cccc(NC3CC3)n2)c(C)c1 [Compound 594, N-[[6-(cyclopropylamino)-2-pyridyl]sulfonyl]-6-methyl-2-(2,4,6-trimethylphenoxy)pyridine-3-carboxamide] | ++ (“++” means between 3 uM and 10 uM)
8 | Cc1cc(C)c(Oc2nc(-c3ccccc3)ccc2C(=O)NS(=O)(=O)c2cccc(NCCO)n2)c(C)c1 [Compound 595, N-[[6-(2-hydroxyethylamino)-2-pyridyl]sulfonyl]-6-phenyl-2-(2,4,6-trimethylphenoxy)pyridine-3-carboxamide] | +++ (“+++” means <3 uM)
9 | CC(C)Oc1ccc(-c2ccc(C(=O)NS(=O)(=O)c3cccc(N)n3)c(N3CC4C(C3)C4(C)C)n2)cn1 (centres unmarked) [Compound 596, N-[(6-amino-2-pyridyl)sulfonyl]-2-(6,6-dimethyl-3-azabicyclo[3.1.0]hexan-3-yl)-6-(6-isopropoxy-3-pyridyl)pyridine-3-carboxamide] | ++ (“++” means between 3 uM and 10 uM)
10 | CC(C)Oc1ccc(-c2ccc(C(=O)NS(=O)(=O)c3cccc(N)n3)c(N3CCCC3C(C)(C)C)n2)cn1 (centres unmarked) [Compound 597, N-[(6-amino-2-pyridyl)sulfonyl]-2-(2-tert-butylpyrrolidin-1-yl)-6-(6-isopropoxy-3-pyridyl)pyridine-3-carboxamide] | +++ (“+++” means <3 uM)
11 | COc1cc2cc(C(=O)NS(=O)(=O)c3cccc(N)c3)n(Cc3c(C)cc(C)cc3C)c2cc1OC [Compound 598, N-(3-aminophenyl)sulfonyl-5,6-dimethoxy-1-[(2,4,6-trimethylphenyl)methyl]indole-2-carboxamide] | ++ (“++” means between 3 uM and 10 uM)
12 | CCOc1ccc(F)c(-c2ccc(C(=O)NS(=O)(=O)c3cccc(N)n3)c(Oc3c(C)cc(C)cc3C)n2)c1 [Compound 599, N-[(6-amino-2-pyridyl)sulfonyl]-6-(5-ethoxy-2-fluoro-phenyl)-2-(2,4,6-trimethylphenoxy)pyridine-3-carboxamide] | +++ (“+++” means <3 uM)
13 | CC1CCN(c2nc(-c3cc(F)cc(OC(C)C)c3)ccc2C(=O)NS(=O)(=O)c2cccc(N)n2)CC1 [Compound 600, N-[(6-amino-2-pyridyl)sulfonyl]-6-(3-fluoro-5-isopropoxy-phenyl)-2-(4-methyl-1-piperidyl)pyridine-3-carboxamide] | +++ (“+++” means <3 uM)
14 | CC(C)Oc1ccc(-c2ccc(C(=O)NS(=O)(=O)c3cccc(N)n3)c(N3C(C)CC(c4ccccc4)C3C)n2)cn1 (centres unmarked) [Compound 601, N-[(6-amino-2-pyridyl)sulfonyl]-2-(2,5-dimethyl-3-phenyl-pyrrolidin-1-yl)-6-(6-isopropoxy-3-pyridyl)pyridine-3-carboxamide] | +++ (“+++” means <3 uM)
15 | CCOc1ccc(-c2ccc(C(=O)NS(=O)(=O)c3cccc(N)n3)c(Oc3c(C)cc(C)cc3C)n2)c(F)c1 [Compound 602, N-[(6-amino-2-pyridyl)sulfonyl]-6-(4-ethoxy-2-fluoro-phenyl)-2-(2,4,6-trimethylphenoxy)pyridine-3-carboxamide] | +++ (“+++” means <3 uM)
16 | Cc1cccc(C)c1Cn1nc(C(C)(C)C)cc1C(=O)NS(=O)(=O)c1ccsc1 [Compound 603, 5-tert-butyl-2-[(2,6-dimethylphenyl)methyl]-N-(3-thienylsulfonyl)pyrazole-3-carboxamide] | +++ (“+++” means <3 uM)
17 | Cc1cc(C)c(CN2c3ccccc3CCCC2C(=O)NS(=O)(=O)c2ccccc2)c(C)c1 (centres unmarked) [Compound 604, N-(benzenesulfonyl)-1-[(2,4,6-trimethylphenyl)methyl]-2,3,4,5-tetrahydro-1-benzazepine-2-carboxamide] | +++ (“+++” means <3 uM)
18 | CC(C)COc1cc(F)cc(-c2ccc(C(=O)NS(=O)(=O)c3ccc[nH]c3=O)c(N3C[C@H](C)CC3(C)C)n2)c1 [Compound 605, 6-(3-fluoro-5-isobutoxy-phenyl)-N-[(2-oxo-1H-pyridin-3-yl)sulfonyl]-2-[(4R)-2,2,4-trimethylpyrrolidin-1-yl]pyridine-3-carboxamide] | +++ (“+++” means <3 uM)
19 | COCC1CCN(c2nc(-c3ccc(OC(C)C)nc3)ccc2C(=O)NS(=O)(=O)c2cccc(N)n2)CC1 [Compound 606, N-[(6-amino-2-pyridyl)sulfonyl]-6-(6-isopropoxy-3-pyridyl)-2-[4-(methoxymethyl)-1-piperidyl]pyridine-3-carboxamide] | ++ (“++” means between 3 uM and 10 uM)
20 | Cc1ccc(-c2ccc(C(=O)NS(=O)(=O)c3nccnc3N)c(Oc3ccc(C)cc3C)n2)cc1 [Compound 607, N-(3-aminopyrazin-2-yl)sulfonyl-2-(2,4-dimethylphenoxy)-6-(p-tolyl)pyridine-3-carboxamide] | +++ (“+++” means <3 uM)
21 | COc1cc(F)ccc1-c1ccc(C(=O)NS(=O)(=O)c2ccc[nH]c2=O)c(Oc2c(C)cc(C)cc2C)n1 [Compound 608, 6-(4-fluoro-2-methoxy-phenyl)-N-[(2-oxo-1H-pyridin-3-yl)sulfonyl]-2-(2,4,6-trimethylphenoxy)pyridine-3-carboxamide] | ++ (“++” means between 3 uM and 10 uM)
22 | CC(C)COc1cc(F)cc(-c2ccc(C(=O)NS(=O)(=O)c3cccc(N)n3)c(N3CC4C(C3)C4(C)C)n2)c1 (centres unmarked) [Compound 609, N-[(6-amino-2-pyridyl)sulfonyl]-2-(6,6-dimethyl-3-azabicyclo[3.1.0]hexan-3-yl)-6-(3-fluoro-5-isobutoxy-phenyl)pyridine-3-carboxamide] | +++ (“+++” means <3 uM)
23 | Cc1ccc(-c2ccc(C(=O)NS(=O)(=O)c3cc[nH]n3)c(Oc3ccc(C)cc3C)n2)cc1 [Compound 610, 2-(2,4-dimethylphenoxy)-6-(p-tolyl)-N-(1H-pyrazol-3-ylsulfonyl)pyridine-3-carboxamide] | +++ (“+++” means <3 uM)
24 | CC(C)COc1cc(F)cc(-c2ccc(C(=O)NS(=O)(=O)c3cccc(N)n3)c(N3CCC(C(C)(C)C)C3)n2)c1 (centres unmarked) [Compound 611, N-[(6-amino-2-pyridyl)sulfonyl]-2-(3-tert-butylpyrrolidin-1-yl)-6-(3-fluoro-5-isobutoxy-phenyl)pyridine-3-carboxamide] | +++ (“+++” means <3 uM)
25 | COc1ncc(-c2ccc(C(=O)NS(=O)(=O)c3cccc(N)n3)c(Oc3c(C)cc(C)cc3C)n2)cc1F [Compound 612, N-[(6-amino-2-pyridyl)sulfonyl]-6-(5-fluoro-6-methoxy-3-pyridyl)-2-(2,4,6-trimethylphenoxy)pyridine-3-carboxamide] | +++ (“+++” means <3 uM)
26 | CC(C)COc1cc(F)cc(-c2ccc(C(=O)NS(=O)(=O)c3cccc(N)n3)c(N3CCCC3C(C)(C)C)n2)c1 (centres unmarked) [Compound 613, N-[(6-amino-2-pyridyl)sulfonyl]-2-(2-tert-butylpyrrolidin-1-yl)-6-(3-fluoro-5-isobutoxy-phenyl)pyridine-3-carboxamide] | +++ (“+++” means <3 uM)
27 | Cc1ccc(-c2ccc(C(=O)NS(=O)(=O)c3cccc(N)n3)c(N3CC(C)CC3(C)C)n2)c(C)c1 (centres unmarked) [Compound 614, N-[(6-amino-2-pyridyl)sulfonyl]-6-(2,4-dimethylphenyl)-2-(2,2,4-trimethylpyrrolidin-1-yl)pyridine-3-carboxamide] | +++ (“+++” means <3 uM)
28 | CCC1CCN(c2nc(-c3cc(F)cc(OCC(C)C)c3)ccc2C(=O)NS(=O)(=O)c2cccc(N)n2)CC1 [Compound 615, N-[(6-amino-2-pyridyl)sulfonyl]-2-(4-ethyl-1-piperidyl)-6-(3-fluoro-5-isobutoxy-phenyl)pyridine-3-carboxamide] | +++ (“+++” means <3 uM)
29 | Cc1nc(OCC(C)C)ccc1-c1ccc(C(=O)NS(=O)(=O)c2cccc(N)n2)c(N2CC(C)CC2(C)C)n1 (centres unmarked) [Compound 616, N-[(6-amino-2-pyridyl)sulfonyl]-6-(6-isobutoxy-2-methyl-3-pyridyl)-2-(2,2,4-trimethylpyrrolidin-1-yl)pyridine-3-carboxamide] | +++ (“+++” means <3 uM)
